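Dose response: 5 concentrations. Exposure: 48 h. Format: 96-well plates. Endpoint: linear interpolation; highest concentration if not reached. At the GI50, growth is halved.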 The source made the active and inactive calls. Cut-off read from the data, not from the text of the source: active = GI50 up to about 1.1 µM and inactive = higher.
Tests used:
Test in all cases: NCI tumour cell line growth inhibition, 48 h
SF-295 = tested on: SF-295
CAKI-1 = tested on: CAKI-1
NCI-H226 = tested on: NCI-H226
HCT-116 = tested on: HCT-116
SW-620 = tested on: SW-620
SF-268 = tested on: SF-268
MDA-MB-231 = tested on: MDA-MB-231
MCF7 = tested on: MCF7
U-251 = tested on: U-251
RXF 393 = tested on: RXF 393
SNB-75 = tested on: SNB-75
SR = tested on: SR
NCI-H460 = tested on: NCI-H460
CCRF-CEM = tested on: CCRF-CEM
EKVX = tested on: EKVX
NCI/ADR-RES = tested on: NCI/ADR-RES
SK-MEL-2 = tested on: SK-MEL-2
SNB-78 = tested on: SNB-78
DMS-273 = tested on: DMS-273

| Structure (SMILES) | GI50 (SF-295) | GI50 (CAKI-1) | GI50 (NCI-H226) | GI50 (HCT-116) | GI50 (SW-620) | GI50 (SF-268) | GI50 (MDA-MB-231) | GI50 (MCF7) | GI50 (U-251) | GI50 (RXF 393) | GI50 (SNB-75) | GI50 (SR) | GI50 (NCI-H460) | GI50 (CCRF-CEM) | GI50 (EKVX) | GI50 (NCI/ADR-RES) | GI50 (SK-MEL-2) | GI50 (SNB-78) | GI50 (DMS-273) |
| --- | --- | --- | --- | --- | --- | --- | --- | --- | --- | --- | --- | --- | --- | --- | --- | --- | --- | --- | --- |
| Cc1nc2ccc(S(=O)(=O)O)cc2c(=O)n1-c1ccc(C(=O)NN2C(=O)C(Cl)C2c2cccs2)cc1 (stereo not given) | > 100 µM (inactive) | > 100 µM (inactive) | > 100 µM (inactive) | > 100 µM (inactive) | > 100 µM (inactive) | 20.7 µM (inactive) | 22.9 µM (inactive) | > 100 µM (inactive) | > 100 µM (inactive) | > 100 µM (inactive) | 50.4 µM (inactive) | > 100 µM (inactive) | > 100 µM (inactive) | 63.1 µM (inactive) | 18.5 µM (inactive) | > 100 µM (inactive) | 23.3 µM (inactive) | – | – |
| COC(=O)c1ccc(CCC2=CC(=O)C=CC2=O)cc1 | 16.6 µM (inactive) | 4.11 µM (inactive) | 16.7 µM (inactive) | 7.8 µM (inactive) | 4.52 µM (inactive) | 15 µM (inactive) | 19.4 µM (inactive) | 6.59 µM (inactive) | 11.2 µM (inactive) | 12.5 µM (inactive) | 16.3 µM (inactive) | 2.49 µM (inactive) | 19 µM (inactive) | 0.603 µM (active) | 16 µM (inactive) | 20.7 µM (inactive) | 16.4 µM (inactive) | – | – |
| C=CCOCCCCC(C(C)=O)C(=O)OC (stereo not given) | > 100 µM (inactive) | > 100 µM (inactive) | > 100 µM (inactive) | > 100 µM (inactive) | > 100 µM (inactive) | > 100 µM (inactive) | – | – | > 100 µM (inactive) | > 100 µM (inactive) | > 100 µM (inactive) | > 100 µM (inactive) | > 100 µM (inactive) | > 100 µM (inactive) | – | – | > 100 µM (inactive) | > 100 µM (inactive) | – |
| O=C1C(c2c(O)[nH]c3ccc(Cl)cc23)=Nc2ccccc21 | 10.4 µM (inactive) | 3.83 µM (inactive) | 6.05 µM (inactive) | 1.98 µM (inactive) | 25.4 µM (inactive) | 5.36 µM (inactive) | 2.51 µM (inactive) | 12.2 µM (inactive) | 4.98 µM (inactive) | 2.49 µM (inactive) | 4.99 µM (inactive) | 9.02 µM (inactive) | 12.1 µM (inactive) | 27.4 µM (inactive) | 5.07 µM (inactive) | 7.91 µM (inactive) | 5.55 µM (inactive) | – | – |
| CCOC(=O)C1=C(C)N(CC(C)C)C2(O)C(OC)CC(=O)C3C(=O)N(c4ccccc4)C(=O)C132 (stereo not given) | 52.4 µM (inactive) | 37 µM (inactive) | 26.1 µM (inactive) | 40.5 µM (inactive) | 34 µM (inactive) | 60.1 µM (inactive) | 89.1 µM (inactive) | 35.5 µM (inactive) | 45.4 µM (inactive) | 20.7 µM (inactive) | 20 µM (inactive) | 21.4 µM (inactive) | 36.5 µM (inactive) | 40.4 µM (inactive) | > 100 µM (inactive) | 53.8 µM (inactive) | 20.4 µM (inactive) | – | – |
| COc1cc(OC)cc(OCc2nc3cc(C(F)(F)F)ccc3nc2-c2ccccc2)c1 | > 100 µM (inactive) | > 100 µM (inactive) | 90.8 µM (inactive) | > 100 µM (inactive) | > 100 µM (inactive) | > 100 µM (inactive) | 76.4 µM (inactive) | > 100 µM (inactive) | > 100 µM (inactive) | > 100 µM (inactive) | > 100 µM (inactive) | > 100 µM (inactive) | > 100 µM (inactive) | > 100 µM (inactive) | 22.2 µM (inactive) | > 100 µM (inactive) | > 100 µM (inactive) | – | – |
| COc1cc(C23OCC(Cc4cc5c(cc42)OCO5)C3CO)cc(OC)c1OC (stereo not given) | 0.266 µM (active) | 5.79 µM (inactive) | 3.85 µM (inactive) | 2.89 µM (inactive) | 3.11 µM (inactive) | 4.82 µM (inactive) | 6.4 µM (inactive) | 0.21 µM (active) | 2.94 µM (inactive) | 2.02 µM (inactive) | 2.23 µM (inactive) | 0.187 µM (active) | 3.23 µM (inactive) | 2.92 µM (inactive) | > 100 µM (inactive) | 1.84 µM (inactive) | 3.24 µM (inactive) | – | – |
| COC(=O)c1ccc(O)c2nc3c(C=O)c(O)cc(O)c3nc12 [LOMOFUNGIN] | 0.0441 µM (active) | 0.345 µM (active) | 0.542 µM (active) | 0.0977 µM (active) | 0.641 µM (active) | 0.428 µM (active) | 3.17 µM (inactive) | 0.369 µM (active) | 0.025 µM (active) | 7.18 µM (inactive) | 1.78 µM (inactive) | 10.6 µM (inactive) | 0.413 µM (active) | 0.259 µM (active) | 1.36 µM (inactive) | 0.0998 µM (active) | 2.9 µM (inactive) | – | – |
| COc1ccc(-c2nc3cc(C(F)(F)F)ccc3n2CC2CCCN3CCCCC23)cc1 (stereo not given) | 19.2 µM (inactive) | 21 µM (inactive) | 16.5 µM (inactive) | 18.1 µM (inactive) | 15.2 µM (inactive) | 15.3 µM (inactive) | 14.3 µM (inactive) | 13.2 µM (inactive) | 17 µM (inactive) | 16.6 µM (inactive) | 15.5 µM (inactive) | 13.3 µM (inactive) | 15.8 µM (inactive) | 13.6 µM (inactive) | 12.1 µM (inactive) | 14.1 µM (inactive) | 15.5 µM (inactive) | – | – |
| Cc1coc2c1CC1(C)C(CCC(O)C1C)C2 (stereo not given) | > 100 µM (inactive) | > 100 µM (inactive) | > 100 µM (inactive) | > 100 µM (inactive) | > 100 µM (inactive) | > 100 µM (inactive) | > 100 µM (inactive) | > 100 µM (inactive) | > 100 µM (inactive) | > 100 µM (inactive) | > 100 µM (inactive) | > 100 µM (inactive) | > 100 µM (inactive) | > 100 µM (inactive) | > 100 µM (inactive) | > 100 µM (inactive) | > 100 µM (inactive) | – | – |
| Cc1ccc(C2=C(c3ccccc3)C(O)(c3ccccc3)C(c3ccccc3)=C2c2ccc(C)cc2)cc1 | 35.6 µM (inactive) | – | > 100 µM (inactive) | 29.9 µM (inactive) | > 100 µM (inactive) | > 100 µM (inactive) | – | – | 31.5 µM (inactive) | > 100 µM (inactive) | > 100 µM (inactive) | > 100 µM (inactive) | > 100 µM (inactive) | > 10 µM (inactive) | 64 µM (inactive) | – | 6.17 µM (inactive) | > 100 µM (inactive) | – |
| O=c1oc2ccccc2c(Nc2ccc3c(c2)Oc2ccccc2O3)c1[N+](=O)[O-] | 18 µM (inactive) | 54.8 µM (inactive) | 23.1 µM (inactive) | 31.8 µM (inactive) | 22.7 µM (inactive) | 23.7 µM (inactive) | 17.1 µM (inactive) | 20.3 µM (inactive) | 16 µM (inactive) | 17.5 µM (inactive) | 14.7 µM (inactive) | 38.3 µM (inactive) | 42.2 µM (inactive) | 40.3 µM (inactive) | 21.7 µM (inactive) | 27.9 µM (inactive) | 16.9 µM (inactive) | – | – |
| CCN(CC)CCOc1ccc(C(=C2CCCCC2)c2ccc(OCCN(CC)CC)cc2)cc1 | 1.85 µM (inactive) | 1.96 µM (inactive) | 2.15 µM (inactive) | 1.25 µM (inactive) | 1.25 µM (inactive) | 1.68 µM (inactive) | – | – | 1.64 µM (inactive) | 1.59 µM (inactive) | 1.45 µM (inactive) | – | 1.47 µM (inactive) | 0.931 µM (active) | 1.74 µM (inactive) | – | 1.93 µM (inactive) | – | 1.52 µM (inactive) |
| c1ccc2c(c1)nc1n2CCNC1 | > 100 µM (inactive) | > 100 µM (inactive) | > 100 µM (inactive) | > 100 µM (inactive) | > 100 µM (inactive) | > 100 µM (inactive) | > 100 µM (inactive) | > 100 µM (inactive) | > 100 µM (inactive) | > 100 µM (inactive) | > 100 µM (inactive) | > 100 µM (inactive) | > 100 µM (inactive) | > 100 µM (inactive) | > 100 µM (inactive) | > 100 µM (inactive) | > 100 µM (inactive) | – | – |
| COC(=O)c1ccccc1C1CN=NC12Cc1ccccc1C2=O (stereo not given) | > 100 µM (inactive) | > 100 µM (inactive) | > 100 µM (inactive) | > 100 µM (inactive) | > 100 µM (inactive) | > 100 µM (inactive) | 78 µM (inactive) | > 100 µM (inactive) | > 100 µM (inactive) | > 100 µM (inactive) | 43.6 µM (inactive) | > 100 µM (inactive) | > 100 µM (inactive) | > 100 µM (inactive) | 42.5 µM (inactive) | 46.8 µM (inactive) | > 100 µM (inactive) | – | – |
| CN(C)CCOC1(CC2CCCCC2)CCC(C(C)(C)C)CC1 (stereo not given) | 4.32 µM (inactive) | 6.62 µM (inactive) | 6.84 µM (inactive) | 4.36 µM (inactive) | 4.12 µM (inactive) | 10.5 µM (inactive) | 4.18 µM (inactive) | 2.98 µM (inactive) | 4.74 µM (inactive) | 3.72 µM (inactive) | 6.81 µM (inactive) | 1.69 µM (inactive) | 3.67 µM (inactive) | 2 µM (inactive) | 8.07 µM (inactive) | 9.62 µM (inactive) | 6.44 µM (inactive) | – | – |
| N#Cc1c(N2CCCC2)ncn(Cc2ccccc2)c1=S | 94.6 µM (inactive) | > 48 µM (inactive) | > 96.2 µM (inactive) | > 100 µM (inactive) | > 100 µM (inactive) | 33.6 µM (inactive) | > 88.3 µM (inactive) | 49.1 µM (inactive) | 38.9 µM (inactive) | 30.3 µM (inactive) | 25.8 µM (inactive) | > 100 µM (inactive) | > 100 µM (inactive) | > 100 µM (inactive) | > 79.3 µM (inactive) | 65 µM (inactive) | > 100 µM (inactive) | – | – |
